Source: patent publication US8349824B2, “Triazolopyridine compounds” (Hoffmann-La Roche Inc., priority 2010, dated 2013)

Tests used:
[1] = target: T1, human PDE10A full length (Homo sapiens, UniProt Q9Y233); assay: PDE10A Scintillation Proximity Assay (SPA), human PDE10A full length assay; type: biochemical; details: 50 nM cGMP + 50 nM [3H]-cGMP, 20 minutes at room temperature, read-out: PDE10A inhibition IC50
T1 construct: purchased Enzo Life Science, Lausen, Switzerland SE-534
Summary of the method: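 IC50 values come from radioactive counts across a range of inhibitor concentrations, using YSi-SPA beads in zinc sulphate as stop reagent. Full-length enzyme hydrolysed 50 nM cGMP with 50 nM [3H]-cGMP for 20 min at room temperature in pH 7.5 HEPES buffer containing 10 mM MgCl2 and 0.05 mg/ml BSA.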

T1 sequence (Q9Y233 1-779 isoform Q9Y233-1): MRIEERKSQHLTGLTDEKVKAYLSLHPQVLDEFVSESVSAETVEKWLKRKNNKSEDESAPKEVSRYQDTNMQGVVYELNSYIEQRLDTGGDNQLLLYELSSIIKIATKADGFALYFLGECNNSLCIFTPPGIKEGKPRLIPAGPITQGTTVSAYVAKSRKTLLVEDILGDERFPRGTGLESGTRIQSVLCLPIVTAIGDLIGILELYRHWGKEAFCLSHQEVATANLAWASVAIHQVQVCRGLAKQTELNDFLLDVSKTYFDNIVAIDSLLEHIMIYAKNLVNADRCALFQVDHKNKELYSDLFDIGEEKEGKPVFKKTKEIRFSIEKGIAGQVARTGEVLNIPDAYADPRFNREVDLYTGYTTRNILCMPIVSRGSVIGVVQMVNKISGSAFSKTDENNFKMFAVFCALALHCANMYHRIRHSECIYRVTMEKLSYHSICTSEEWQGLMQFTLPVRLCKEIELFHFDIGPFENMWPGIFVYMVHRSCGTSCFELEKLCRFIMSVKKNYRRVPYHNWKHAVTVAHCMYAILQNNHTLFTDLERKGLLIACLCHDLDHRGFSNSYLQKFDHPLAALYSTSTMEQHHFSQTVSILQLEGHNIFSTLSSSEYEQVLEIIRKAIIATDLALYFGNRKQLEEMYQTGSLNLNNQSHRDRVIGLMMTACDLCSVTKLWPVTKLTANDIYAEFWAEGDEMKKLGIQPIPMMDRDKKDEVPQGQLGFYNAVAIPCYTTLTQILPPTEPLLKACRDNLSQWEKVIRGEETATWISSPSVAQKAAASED

SMILES | IC50 [1] [nM] | melting point [°C]
CCN(C)c1nc2cc(NC(=O)c3c(C(=O)N4CCOCC4)cnn3C)ccn2n1 [Example 59, 2-Methyl-4-(morpholine-4-carbonyl)-2H-pyrazole-3-carboxylic acid [2-(ethyl-methyl-amino)-[1,2,4]triazolo[1,5-a]pyridin-7-yl]-amide] | 7.97 | 167 to 169
Cn1ncc(C(=O)N2CCC2)c1C(=O)Nc1ccn2nc(N3CCCC3)nc2c1 [Example 60, 4-(Azetidine-1-carbonyl)-2-methyl-2H-pyrazole-3-carboxylic acid (2-pyrrolidin-1-yl-[1,2,4]triazolo[1,5-a]pyridin-7-yl)-amide] | 3.16 | > 250
Cn1ncc(C(=O)N2CCOCC2)c1C(=O)Nc1ccn2nc(N3CCCC3)nc2c1 [Example 61, 2-Methyl-4-(morpholine-4-carbonyl)-2H-pyrazole-3-carboxylic acid (2-pyrrolidin-1-yl-[1,2,4]triazolo[1,5-a]pyridin-7-yl)-amide] | 0.94 | 194 to 197
CCNC(=O)c1nc2cc(NC(=O)c3c(C(=O)N4CCC4)cnn3C)ccn2n1 [Example 63, 7-{[4-(Azetidine-1-carbonyl)-2-methyl-2H-pyrazole-3-carbonyl]-amino}-[1,2,4]triazolo[1,5-a]pyridine-2-carboxylic acid ethylamide] | 93.7 | 217 to 229
COCCNC(=O)c1nc2cc(NC(=O)c3c(C(=O)N4CCC4)cnn3C)ccn2n1 [Example 64, 7-(4-(Azetidine-1-carbonyl)-1-methyl-1H-pyrazole-5-carboxamido)-N-(2-methoxyethyl)-[1,2,4]triazolo[1,5-a]pyridine-2-carboxamide] | 104 | 159 to 161
Cn1ncc(C(=O)N2CCC2)c1C(=O)Nc1ccn2nc(Br)nc2c1 [Example 65, 4-(Azetidine-1-carbonyl)-2-methyl-2H-pyrazole-3-carboxylic acid (2-bromo-[1,2,4]triazolo[1,5-a]pyridin-7-yl)-amide] | 67.4 | > 250
Cn1ncc(C(=O)N2CCC2)c1C(=O)Nc1ccn2nc(-c3ccncc3)nc2c1 [Example 66, 4-(Azetidine-1-carbonyl)-2-methyl-2H-pyrazole-3-carboxylic acid (2-pyridin-4-yl-[1,2,4]triazolo[1,5-a]pyridin-7-yl)-amide] | 1.82 | > 250
Cc1cc(-c2nc3cc(NC(=O)c4c(C(=O)N5CCC5)cnn4C)ccn3n2)ccn1 [Example 67, 4-(Azetidine-1-carbonyl)-2-methyl-2H-pyrazole-3-carboxylic acid [2-(2-methyl-pyridin-4-yl)-[1,2,4]triazolo[1,5-a]pyridin-7-yl]-amide] | 2.06 | 210 to 211
CN(CCF)c1nc2cc(NC(=O)c3c(C(=O)N4CCOCC4)cnn3C)ccn2n1 [Example 71, 2-Methyl-4-(morpholine-4-carbonyl)-2H-pyrazole-3-carboxylic acid {2-[(2-fluoro-ethyl)-methyl-amino]-[1,2,4]triazolo[1,5-a]pyridin-7-yl}-amide] | 6.21 | 144 to 145
CN(C)C(=O)c1cnn(C)c1C(=O)Nc1ccn2nc(N(C)CCF)nc2c1 [Example 72, 2-Methyl-2H-pyrazole-3,4-dicarboxylic acid 4-dimethylamide 3-({2-[(2-fluoro-ethyl)-methyl-amino]-[1,2,4]triazolo[1,5-a]pyridin-7-yl}-amide)] | 20.6 | 203 to 204
CN(CCF)c1nc2cc(NC(=O)c3c(C(=O)N(C)C4CC4)cnn3C)ccn2n1 [Example 74, 2-Methyl-2H-pyrazole-3,4-dicarboxylic acid 4-(cyclopropyl-methyl-amide)3-({2-[(2-fluoro-ethyl)-methyl-amino]-[1,2,4]triazolo[1,5-a]pyridin-7-yl}-amide)] | 1.86 | 148 to 151
COc1ccccc1-c1nc2cc(NC(=O)c3c(C(=O)N4CCC4)cnn3C)ccn2n1 [Example 102, 4-(Azetidine-1-carbonyl)-2-methyl-2H-pyrazole-3-carboxylic acid [2-(2-methoxy-phenyl)-[1,2,4]triazolo[1,5-a]pyridin-7-yl]-amide] | 0.65 | 258.1
COc1ccccc1-c1nc2cc(NC(=O)c3c(C(=O)N(C)C4CC4)cnn3C)ccn2n1 [Example 103, 2-Methyl-2H-pyrazole-3,4-dicarboxylic acid 4-(cyclopropyl-methyl-amide)3-{[2-(2-methoxy-phenyl)-[1,2,4]triazolo[1,5-a]pyridin-7-yl]-amide}] | 0.31 | 239.2
COC1CN(C(=O)c2cnn(C)c2C(=O)Nc2ccn3nc(-c4cccc(F)c4)nc3c2)C1 [Example 107, 4-(3-Methoxy-azetidine-1-carbonyl)-2-methyl-2H-pyrazole-3-carboxylic acid [2-(3-fluoro-phenyl)-[1,2,4]triazolo[1,5-a]pyridin-7-yl]-amide] | 4.7 | 255 to 257
CN(C)C(=O)c1cnn(C)c1C(=O)Nc1ccn2nc(-c3cccnc3F)nc2c1 [Example 109, N5-(2-(2-fluoropyridin-3-yl)-[1,2,4]triazolo[1,5-a]pyridin-7-yl)-N4,N4,1-trimethyl-1H-pyrazole-4,5-dicarboxamide] | 3.74 | 249 to 251
Cn1ncc(C(=O)N2CCOCC2)c1C(=O)Nc1ccn2nc(-c3cccnc3F)nc2c1 [Example 111, 2-Methyl-4-(morpholine-4-carbonyl)-2H-pyrazole-3-carboxylic acid [2-(2-fluoro-pyridin-3-yl)-[1,2,4]triazolo[1,5-a]pyridin-7-yl]-amide] | 6.62 | 267 to 269
Cn1ncc(C(=O)N2CC3(COC3)C2)c1C(=O)Nc1ccn2nc(N3CCOCC3)nc2c1 [Example 112, 2-Methyl-4-(2-oxa-6-aza-spiro[3.3]heptane-6-carbonyl)-2H-pyrazole-3-carboxylic acid (2-morpholin-4-yl-[1,2,4]triazolo[1,5-a]pyridin-7-yl)-amide] | 57.3 | > 300
CN(CCF)c1nc2cc(NC(=O)c3c(C(=O)N4CC(F)C4)cnn3C)ccn2n1 [Example 114, 4-(3-Fluoro-azetidine-1-carbonyl)-2-methyl-2H-pyrazole-3-carboxylic acid {2-[(2-fluoro-ethyl)-methyl-amino]-[1,2,4]triazolo[1,5-a]pyridin-7-yl}-amide] | 5.66 | 233 to 236

Continued, values first:

IC50 [1] [nM] | melting point [°C] | SMILES
3.69 | 200 to 208 | CN(CCF)C(=O)c1cnn(C)c1C(=O)Nc1ccn2nc(-c3cccnc3)nc2c1 [Example 56, 2-Methyl-2H-pyrazole-3,4-dicarboxylic acid 4-[(2-fluoro-ethyl)-methyl-amide]3-[(2-pyridin-3-yl-[1,2,4]triazolo[1,5-a]pyridin-7-yl)-amide]]
7.03 | 229 to 232 | CCN(C)c1nc2cc(NC(=O)c3c(C(=O)N4CCC4)cnn3C)ccn2n1 [Example 58, 4-(Azetidine-1-carbonyl)-2-methyl-2H-pyrazole-3-carboxylic acid [2-(ethyl-methyl-amino)-[1,2,4]triazolo[1,5-a]pyridin-7-yl]-amide]
11.2 | 262 to 264 | Cc1cncc(-c2nc3cc(NC(=O)c4c(C(=O)N5CCC5)cnn4C)ccn3n2)c1 [Example 68, 4-(Azetidine-1-carbonyl)-2-methyl-2H-pyrazole-3-carboxylic acid [2-(5-methyl-pyridin-3-yl)-[1,2,4]triazolo[1,5-a]pyridin-7-yl]-amide]
5.65 | 236 to 237 | CN(CCF)c1nc2cc(NC(=O)c3c(C(=O)N4CCC4)cnn3C)ccn2n1 [Example 70, 4-(Azetidine-1-carbonyl)-2-methyl-2H-pyrazole-3-carboxylic acid {2-[(2-fluoro-ethyl)-methyl-amino]-[1,2,4]triazolo[1,5-a]pyridin-7-yl}-amide]
11.6 | 145 to 147 | CCN(C)C(=O)c1cnn(C)c1C(=O)Nc1ccn2nc(N(C)CCF)nc2c1 [Example 73, 2-Methyl-2H-pyrazole-3,4-dicarboxylic acid 4-(ethyl-methyl-amide) 3-({2-[(2-fluoro-ethyl)-methyl-amino]-[1,2,4]triazolo[1,5-a]pyridin-7-yl}-amide)]
1.43 | 255 to 260 | CN(C)C(=O)c1cnn(C)c1C(=O)Nc1ccn2nc(-c3cccc(F)c3)nc2c1 [Example 104, 2-Methyl-2H-pyrazole-3,4-dicarboxylic acid 4-dimethylamide 3-{[2-(3-fluoro-phenyl)[1,2,4]triazolo[1,5-a]pyridin-7-yl]-amide}]
1.11 | 232 to 236 | Cn1ncc(C(=O)N2CCC2)c1C(=O)Nc1ccn2nc(-c3cccc(F)c3)nc2c1 [Example 105, 4-(Azetidine-1-carbonyl)-2-methyl-2H-pyrazole-3-carboxylic acid [2-(3-fluoro-phenyl)-[1,2,4]triazolo[1,5-a]pyridin-7-yl]-amide]
1.54 | 212 to 214 | Cn1ncc(C(=O)N2CCOCC2)c1C(=O)Nc1ccn2nc(-c3cccc(F)c3)nc2c1 [Example 106, 2-Methyl-4-(morpholine-4-carbonyl)-2H-pyrazole-3-carboxylic acid [2-(3-fluoro-phenyl)-[1,2,4]triazolo[1,5-a]pyridin-7-yl]-amide]
15 | > 280 | Cn1ncc(C(=O)N2CCOCC2)c1C(=O)Nc1ccn2nc(-c3ccnc(F)c3)nc2c1 [Example 117, N-(2-(2-fluoropyridin-4-yl)-[1,2,4]triazolo[1,5-a]pyridin-7-yl)-1-methyl-4-(morpholine-4-carbonyl)-1H-pyrazole-5-carboxamide]
